The values below come from patent US11420944B2, “Voltage-dependent t-type calcium channel blocker” (Nippon Chemiphar Co., Ltd., priority 2016, dated 2022).

Test [1] has as its target T1, human Cav3.2 channels (Homo sapiens, UniProt O95180).
T1 construct: expressed in transfected cells; host or cells: HEK293 cells (ATCC No. CRL-1573), plasmid pcDNA3.1(+)
The test is described as follows: Intracellular calcium concentration measurement (Fluo-4 AM) in stable cells expressing human Cav3.2 channels, buffer A / buffer B. Format: cell-based. In outline: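 State-dependent Cav3.2 inhibition compared in two buffers differing in potassium equilibrium potential (−92 vs −110 mV). Stable HEK293 line, Fluo-4 dye; compound 15 min, room temperature, dark, then KCl addition (83.8 or 91.8 mM) triggers calcium influx read 10 s; IC50 from peak increment over baseline.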
A general note: Calcium assays in cells follow changes in intracellular calcium, usually with a dye or a luminescent sensor.

The target of test [2] is T1, human Cav3.2 channels. The test can be described thus: Electrophysiological evaluation, whole-cell patch-clamp with automatic patch-clamp system. The format is cell-based. The conditions noted are these: for inhibition at 0.3 µM: holding potential −80 mV, read-out: Cav3.2 channel current inhibition ratio at 0.3 μM of test compound (holding potential −80 mV). As for the experimental part:
Electrophysiological Evaluation
Stable cell line expressing human Cav3.2 channels, which had been produced by Test method (1) of Example 140, was seeded in a 10-cm dish using DMEM medium containing 10% FBS, and the cells were cultured for 24 hours or longer under the conditions of 37° C. and 5% CO2. The cells were detached using Accutase and were used after being suspended in ice-cold extracellular solution. The Cav3.2 channel current was measured by the Whole-cell patch-clamp method using an automatic patch-clamp system (Port-a-Patch; Nanion Technologies GmbH, EPC-10; HEKA Elektronik GmbH, Patchmaster; HEKA Elektronik GmbH) and buffers described below. Measurement of the Cav3.2 channel current was carried out at room temperature, and the measurement conditions were set as follows: holding potential: −80 mV, depolarization potential: −20 mV, depolarization time: 100 msec, and depolarization frequency: 10 sec. The Cav3.2 channel current was defined as the peak value of the inward current observed when depolarization occurred at −20 mV.
For a test compound, a DMSO solution was diluted 1,000 times with extracellular solution, and thus a solution having an intended concentration was produced. The test compound was applied using an extracellular perfusion system (Nanion Technologies GmbH) until the Cav3.2 channel current was stabilized, and five concentrations at the maximum from the low-concentration side were cumulatively applied. The inhibition ratio of the test compound was calculated from the current value immediately before the application of the test compound and the change rate of the Cav3.2 channel current after the application of the test compound (conditions for a holding potential of −80 mV: test compound concentration of 0.3 μM, conditions for a holding potential of −100 mV: test compound concentration of 3 μM).
Extracellular solution: 135 mM NaCl, 4 mM KCl, 1 mM MgCl2, 5 mM CaCl2, 5 mM D-Glucose, and 10 mM HEPES, pH 7.4
Internal solution for electrode: 10 mM NaCl, 10 mM HEPES, 50 mM CsCl, 60 mM CsF, and 20 mM EGTA, pH 7.2
On the technique in general: The patch-clamp technique gives a direct electrical read-out from membranes.

The mark [3] stands for this setting: Tables 2 to 6, buffer A, equilibrium potential of potassium −92 mV, read-out: Inhibitory action of buffer A (inactivated state).

Like-named read-outs stand apart in the source and are kept apart here.

T1 sequence (O95180 whole entry): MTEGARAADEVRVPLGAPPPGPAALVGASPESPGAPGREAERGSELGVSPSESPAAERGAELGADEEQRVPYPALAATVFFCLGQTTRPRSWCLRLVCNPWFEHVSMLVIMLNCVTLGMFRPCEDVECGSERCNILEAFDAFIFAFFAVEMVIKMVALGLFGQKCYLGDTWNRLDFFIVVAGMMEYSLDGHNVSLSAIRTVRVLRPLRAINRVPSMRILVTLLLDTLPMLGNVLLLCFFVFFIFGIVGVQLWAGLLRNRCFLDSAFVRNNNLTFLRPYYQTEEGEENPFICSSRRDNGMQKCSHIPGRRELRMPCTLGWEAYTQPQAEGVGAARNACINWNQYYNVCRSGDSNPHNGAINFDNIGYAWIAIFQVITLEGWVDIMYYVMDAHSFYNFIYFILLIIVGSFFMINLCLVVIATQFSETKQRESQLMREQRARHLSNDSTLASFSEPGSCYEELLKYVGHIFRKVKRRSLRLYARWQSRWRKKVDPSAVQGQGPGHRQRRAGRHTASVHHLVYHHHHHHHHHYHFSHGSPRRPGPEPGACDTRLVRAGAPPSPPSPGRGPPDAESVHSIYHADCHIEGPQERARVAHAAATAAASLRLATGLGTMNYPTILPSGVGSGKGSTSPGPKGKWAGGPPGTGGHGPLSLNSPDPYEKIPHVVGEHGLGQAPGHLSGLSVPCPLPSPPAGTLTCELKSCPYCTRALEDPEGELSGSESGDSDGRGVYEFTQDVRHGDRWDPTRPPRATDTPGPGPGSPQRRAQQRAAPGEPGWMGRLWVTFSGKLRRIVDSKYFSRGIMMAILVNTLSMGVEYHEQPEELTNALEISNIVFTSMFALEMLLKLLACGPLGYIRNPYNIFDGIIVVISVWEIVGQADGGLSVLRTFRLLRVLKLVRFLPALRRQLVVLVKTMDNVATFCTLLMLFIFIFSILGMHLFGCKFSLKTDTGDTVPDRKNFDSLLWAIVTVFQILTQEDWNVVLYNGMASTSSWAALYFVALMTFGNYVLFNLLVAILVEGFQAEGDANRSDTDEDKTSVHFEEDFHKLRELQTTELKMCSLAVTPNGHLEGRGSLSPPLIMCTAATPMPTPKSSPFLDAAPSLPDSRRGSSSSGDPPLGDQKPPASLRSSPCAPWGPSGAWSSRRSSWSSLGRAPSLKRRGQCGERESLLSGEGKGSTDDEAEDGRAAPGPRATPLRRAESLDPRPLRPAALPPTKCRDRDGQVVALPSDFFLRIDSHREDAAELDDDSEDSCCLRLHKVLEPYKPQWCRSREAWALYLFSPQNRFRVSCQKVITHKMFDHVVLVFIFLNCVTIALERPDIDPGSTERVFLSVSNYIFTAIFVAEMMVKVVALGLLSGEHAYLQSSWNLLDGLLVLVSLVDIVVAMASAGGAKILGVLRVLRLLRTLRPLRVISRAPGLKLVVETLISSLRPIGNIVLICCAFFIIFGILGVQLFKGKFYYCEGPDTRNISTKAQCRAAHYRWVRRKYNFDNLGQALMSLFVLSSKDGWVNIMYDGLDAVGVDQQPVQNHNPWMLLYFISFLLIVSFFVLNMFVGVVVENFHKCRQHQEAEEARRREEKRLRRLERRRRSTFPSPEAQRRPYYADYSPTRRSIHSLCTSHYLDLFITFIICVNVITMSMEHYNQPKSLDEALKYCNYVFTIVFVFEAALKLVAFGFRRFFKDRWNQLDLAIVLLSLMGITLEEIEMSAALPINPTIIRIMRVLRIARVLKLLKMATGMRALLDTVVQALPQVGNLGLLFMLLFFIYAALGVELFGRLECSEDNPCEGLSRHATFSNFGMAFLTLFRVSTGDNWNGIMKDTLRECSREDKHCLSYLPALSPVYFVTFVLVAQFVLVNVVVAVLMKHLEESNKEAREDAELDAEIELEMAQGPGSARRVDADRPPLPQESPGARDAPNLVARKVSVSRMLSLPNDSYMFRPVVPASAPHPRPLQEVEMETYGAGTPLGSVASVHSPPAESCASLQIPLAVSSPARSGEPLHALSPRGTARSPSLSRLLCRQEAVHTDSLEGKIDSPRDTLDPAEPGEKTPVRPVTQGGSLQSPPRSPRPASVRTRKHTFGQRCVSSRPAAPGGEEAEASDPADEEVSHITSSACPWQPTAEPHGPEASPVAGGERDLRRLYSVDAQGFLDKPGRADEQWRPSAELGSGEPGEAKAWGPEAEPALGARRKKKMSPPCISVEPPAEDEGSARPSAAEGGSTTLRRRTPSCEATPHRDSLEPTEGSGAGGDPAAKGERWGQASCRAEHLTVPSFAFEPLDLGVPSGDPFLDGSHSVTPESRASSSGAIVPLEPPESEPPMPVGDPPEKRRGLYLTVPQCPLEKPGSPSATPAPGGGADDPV

`CC(C)[C@@H](NC(=O)[C@H]1C[C@@H]1c1nc2ccccc2[nH]1)c1ccc(C(F)(F)F)s1` [Example 50, (1S,2S)-2-(1H-benzo[d]imidazol-2-yl)-N—((R)-2-methyl-1-(5-(trifluoromethyl)thiophen-2-yl)propyl)cyclopropane-1-carboxamide]: in test [1] (setting [3]), the IC50 fell in the range of 100 to 1000 nM. The inhibition at 0.3 µM in test [2] came to 43%.

For `C[C@@H](NC(=O)C1CC1c1ncc2ccccn12)c1cc2cc(F)ccc2o1` (single isomer, unassigned) [Example 117A], the IC50 in test [1] (setting [3]) was in the range of 100 to 1000 nM. Also, the inhibition at 0.3 µM in test [2] was 70%.

`CCn1c([C@H]2C[C@@H]2C(=O)N[C@H](C)c2cc3cc(F)ccc3o2)nc2ccccc21` [Example 102, (1S,2S)-2-(1-ethyl-1H-benzo[d]imidazol-2-yl)-N—((R)-1-(5-fluorobenzofuran-2-yl)ethyl)cyclopropane-1-carboxamide]: the IC50 in test [1] (setting [3]) is at most 100 nM. The inhibition at 0.3 µM in test [2] came out at 74%.

Take `C[C@@H](NC(=O)C1CC1c1ccc2ccccc2n1)c1ccc(OCC(F)(F)F)s1` (single isomer, unassigned) [Example 34A]: the IC50 in test [1] (setting [3]) is 100 to 1000 nM. The inhibition at 0.3 µM in test [2] came to 58%.

Consider `CC(NC(=O)[C@H]1C[C@@H]1c1nc2ccccc2[nH]1)c1nc2cc(F)ccc2s1` (stereo partly drawn) [Example 104, (1S,2S)-2-(1H-benzo[d]imidazol-2-yl)-N-(1-(5-fluorobenzo[d]thiazol-2-yl)ethyl)cyclopropane-1-carboxamide], for which the IC50 in test [1] (setting [3]) was at most 100 nM. The inhibition at 0.3 µM in test [2] is 52%.

For `C[C@@H](NC(=O)[C@H]1C[C@@H]1c1nc2ccccc2[nH]1)c1ccc2ccccc2n1` [Example 52, (1S,2S)-2-(1H-benzo[d]imidazol-2-yl)-N—((R)-1-(quinolin-2-yl)ethyl)cyclopropane-1-carboxamide], the IC50 in test [1] (setting [3]) lay in the range of 100 to 1000 nM. In addition, in test [2], the inhibition at 0.3 µM was found to be 36%.

On to `C[C@@H](NC(=O)[C@H]1C[C@@H]1c1nc2ccccc2[nH]1)c1ccc(C(=O)OC(C)(C)C)s1` [Example 25A, Trans-5-((1R)-1-(2-(1H-benzo[d]imidazol-2-yl)cyclopropane-1-carboxamido)ethyl)thiophene-2-carboxylic acid tert-butyl ester], for which the IC50 in test [1] (setting [3]) fell in the range of 100 to 1000 nM. Besides, the inhibition at 0.3 µM in test [2] is 59%. In addition, the “Cav3.2 channel current inhibition ratio at 3 μM of test compound (holding potential −100 mV)” value in test [2] (3 μM, holding potential −100 mV) worked out at 54%.

Regarding `C[C@@H](NC(=O)[C@H]1C[C@@H]1c1nc2ccccc2[nH]1)c1ccc2c(c1)CCO2` [Example 78, (1S,2S)-2-(1H-benzo[d]imidazol-2-yl)-N—((R)-1-(2,3-dihydrobenzofuran-5-yl)ethyl)cyclopropane-1-carboxamide], in test [1] (setting [3]), the IC50 fell in the range of 100 to 1000 nM. For the same molecule, in test [2], the inhibition at 0.3 µM worked out at 49%.

Consider `C[C@@H](NC(=O)[C@H]1C[C@@H]1c1nc2ccccc2[nH]1)c1ccc2c(c1)OC(F)(F)O2` [Example 73, (1S,2S)-2-(1H-benzo[d]imidazol-2-yl)-N—((R)-1-(2,2-difluorobenzo[d][1,3]dioxol-5-yl)ethyl)cyclopropane-1-carboxamide], for which the IC50 in test [1] (setting [3]) is 100 to 1000 nM. In test [2], the inhibition at 0.3 µM amounted to 50%.

Turning to `Cc1c([C@@H](C)NC(=O)[C@H]2C[C@@H]2c2nc3ccccc3[nH]2)oc2ccc(F)cc12` [Example 101, (1S,2S)-2-(1H-benzo[d]imidazol-2-yl)-N—((R)-1-(5-fluoro-3-methylbenzofuran-2-yl)ethyl)cyclopropane-1-carboxamide], the IC50 in test [1] (setting [3]) was at most 100 nM. The inhibition at 0.3 µM in test [2] is 73%.

`C[C@@H](NC(=O)[C@@H]1CCN(CC(=O)Nc2ccccc2)C1)c1ccc(OCC(F)(F)F)s1.Cl` [Example 17, hydrochloride]: the IC50 in test [1] (Table 1, buffer A, equilibrium potential of potassium −92 mV, read-out: Inhibitory action of buffer A (inactivated state)) lay in the range of 100 to 1000 nM; in test [1] (Table 1, buffer B, equilibrium potential of potassium −110 mV, read-out: Inhibitory action of buffer B (resting state or closed state)), 1000 to 10000 nM. The inhibition at 0.3 µM in test [2] amounted to 64%.
